Molecular target: T1, SUV39H1 (Homo sapiens, UniProt O43463)
T1 construct: recombinant SUV39H1
T1 sequence (O43463 1-412): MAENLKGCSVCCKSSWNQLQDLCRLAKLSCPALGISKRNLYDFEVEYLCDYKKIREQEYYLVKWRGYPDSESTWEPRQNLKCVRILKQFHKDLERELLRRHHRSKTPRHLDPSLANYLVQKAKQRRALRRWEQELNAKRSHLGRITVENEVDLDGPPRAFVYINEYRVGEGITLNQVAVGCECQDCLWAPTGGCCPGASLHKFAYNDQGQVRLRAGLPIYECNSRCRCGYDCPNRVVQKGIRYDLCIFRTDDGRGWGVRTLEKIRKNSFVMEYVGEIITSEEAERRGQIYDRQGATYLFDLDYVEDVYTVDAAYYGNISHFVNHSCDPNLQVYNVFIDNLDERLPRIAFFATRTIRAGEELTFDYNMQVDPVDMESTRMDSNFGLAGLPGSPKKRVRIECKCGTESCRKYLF
Experiment: cell-free histone methyltransferase activity assay with recombinant enzyme (data not shown)
Format: biochemical

CN1C(=O)[C@@]23C[C@](C)(C#N)[C@H](c4ccc5c(c4)OCO5)N2C(=O)[C@]1(C)SS3 (racemic) [NT1721]
IC50: 1.3 µM

— publication PMC5349906, “NT1721, a novel epidithiodiketopiperazine, exhibits potent in vitro and in vivo efficacy against acute myeloid leukemia” (Oncotarget, 2016)
